Test results from paper PMC7134380 (Journal of the American Chemical Society, 2020).

Molecular target: T1, human ornithine aminotransferase (hOAT) (Homo sapiens, UniProt P04181)
T1 sequence (P04181 26-439 limits assumed): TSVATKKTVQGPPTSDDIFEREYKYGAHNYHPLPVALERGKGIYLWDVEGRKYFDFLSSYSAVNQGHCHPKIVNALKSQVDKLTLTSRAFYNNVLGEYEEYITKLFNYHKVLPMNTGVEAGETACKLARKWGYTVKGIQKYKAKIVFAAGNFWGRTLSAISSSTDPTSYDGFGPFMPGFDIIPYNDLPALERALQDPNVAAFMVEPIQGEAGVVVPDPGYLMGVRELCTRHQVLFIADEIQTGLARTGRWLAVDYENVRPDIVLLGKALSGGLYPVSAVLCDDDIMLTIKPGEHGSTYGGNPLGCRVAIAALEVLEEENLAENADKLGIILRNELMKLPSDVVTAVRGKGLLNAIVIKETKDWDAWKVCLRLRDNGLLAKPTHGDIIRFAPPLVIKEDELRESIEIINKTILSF
Experiment: time-dependent inactivation kinetics
Format: biochemical
Details: read-out: hOAT / KI; covalent; mechanism-based inactivator (kinact/KI analysis)

KI (inactivation): 1400 ± 41 µM
SMILES: N[C@H]1C[C@@H](C(=O)O)C[C@@H]1F [compound 1, (1R,3S,4S)-3-amino-4-fluorocyclopentane-1-carboxylic acid]
